Patent US4594238A (Regents of University of Minnesota, priority 1984, dated 1986)
Entries after “also recorded” stand apart in the source; their conditions may differ. Read-outs that look alike come from different tables or passages of the source.

Tests used:
[1] = Comparative nephrotoxicity: low-dose i.v. vs high-dose i.p. NaDDTC rescue after DDP, Example 2; assay type: in vivo, Female F344 (Fischer) rats; details: for Kidney sections / Day 5 BUN (mean ±SEM) / Diarrhea / Weight loss on day 5: DDP 6 mg/kg i.v.
Procedure: (§1) Female F344 (Fischer) rates, initial weight 100-150 g, were obtained from the Charles River Breeding Laboratory, Wilmington, MA. They were housed in methacrylate cages and given Purina rat chow and water ad libitum for at least one week. Lean weight of the rats were 150 g at the onset of experiments unless otherwise noted.
(§2) Mammary Tumor 13762 was obtained in the form of an implanted tumor in a female F344 rat. All intravenous injections were carried out under brief ether anesthesia.

[2] = Reduction of toxicity (including bone marrow toxicity) of platinum compounds, Example 4; assay type: in vivo; details: platinum compounds of drawing 16, X=OH or H2O
[3] = Protection of rats against DDP toxicity by i.p. NaDDTC (BUN, weight loss, diarrhea, histopathology), Example 1 / Table 1; assay type: in vivo, Male F344 (Fischer) rats; details: for Incidence of Diarrhea: DDP […] i.v.; for BUN / Weight Loss: Day 5, DDP […] i.v.
Description: Male F344 (Fischer) rats (average weight, 150 g) were obtained from the Charles River Breeding Laboratory. They were divided into groups of four rats, placed in methacrylate cages, and given National Institute of Health chow for rodents and water ad lib, for 7 days. Average weight of the rats was 180 g (range, 160-200 g) when injected.
Tetraethylthiuram disulfide (disulfiram) was obtained from Sigma Chemical Co., St. Louis MO. […] Trav. Chim. 70:917 (1951); immediately prior to injection, it was dissolved in sterile water at a concentration of 100 mg/ml. Sodium bicarbonate was prepared in sterile water at a concentration of 50 mg/ml. All injections were carried out under brief ether anesthesia.
Otherwise, weight and BUN were determined at 5 days after injection, reportedly the time of maximal observed toxicity. Evidence of gastrointestinal toxicity was obtained qualitatively by noting the presence or absence of diarrhea 3-5 days after injection.
Randomly selected animals were sacrificed at 5 days after injection for study of histopathologic changes in the kidney and to note the presence or absence of hemorrhagic enteritis. Kidneys were removed, placed in Zenker's fixative, embedded in paraffin, sectioned at 6 μm, and stained with hematoxylin and eosin.

Rat mammary tumor 13762 = assay: Comparative tumor response to DDP with and without NaDDTC rescue, Example 2; assay type: in vivo, Female F344 (Fischer) rats
Procedure: as §1, §2
Tumor inoculation was carried out as follows: two rats bearing tumors having a mean diameter of 2.5-3.5 cm were sacrificed using ether anesthesia. The tumors were excised immediately, finely minced, combined, and resuspended in 20-40 ml of normal saline. This suspension was filtered through a gauze pad to remove coarse pieces of tissue and the resulting suspension inoculated subcutaneously (0.2-0.5 ml/injection) into the left flank of each rat.

[4] = rats; cited from earlier work
[5] = Urinary excretion of free and conjugated DDTC; assay type: in vivo, rats; details: rat, urine, ip, 500 mg/kg, NaDDTC 500 mg/kg ip
Description: Intravenous administration was explored in an attempt to deliver larger quantities of free DDTC anion to the likely site of toxicity in the renal tubule; urinary excretion of DDTC was monitored as a means of estimating changes in tubular levels of free DDTC. The standard assay for DDTC anion utilizes a spectrophotometric determination following reaction with cupric ion to form the colored Cu(DDTC)2 complex. Unfortunately, the affinity of cupric ion for sulfur ligands is such that this metal ion will catalyze the decomposition of the DDTC glucuronide and therefore will not discriminate between free and conjugated DDTC. Ferric ion does react selectively with the free ligand, thereby providing a convenient assay for both free and total DDTC in urine.
Excretion of free and conjugated NaDDTC in the urine of rats was measured as follows. NaDDTC was administered in selected doses via intraperitoneal or intravenous injection. Rats were then placed in metabolic cages and urine was collected and analyzed at 30 minute intervals. Urine samples (0.1-5.0 ml) were added to 2 ml of a solution containing ferric nitrate (20 mM) and sodium citrate (200 mM). The dark Fe (DDTC)3 complex was extracted into chloroform (4 ml) by vortexing for 5 minutes. The mixture was chilled, centrifuged for 1 minute, and the chloroform layer separated. To this chloroform solution was added saturated aqueous cupric sulfate (2 ml), and the mixture was vortexed for 5 minutes, chilled, and centrifuged for 1 minute. The chloroform solution was separated and the Cu(DDTC)2absorbance measured at 435 nm. Free DDTC was determined by comparison of absorbance to a standard curve. Total DDTC was determined by addition of 0. 05-1.0 ml of urine to 3 ml of saturated cupric sulfate followed by incubation at 45° for 30 minutes. The resulting Cu(DDTC)2 complex was extracted into chloroform and analyzed as described above. DDTC-glucuronide excretion was determined by subtraction of free from total DDTC.

[6] = cited from earlier work
[7] = thiourea administered prior to the platinum (II); cited from earlier work
Pt/DNA complexes = details: cited from earlier work
[8] = test system: thyroid hormone production; details: cited from earlier work
[9] = NaDDTC 100 mg/kg i.v. 2 hours after DDP
[10] = NaDDTC 750 mg/kg i.p. 2 hours after DDP
[11] = DDTC 500 mg/kg ip 1/2 hour after DDP, n=4
[12] = DDTC 500 mg/kg ip 1 hour after DDP, n=4
[13] = DDTC 500 mg/kg ip 2 hours after DDP, n=4
[14] = DDTC 750 mg/kg ip 0 hours after DDP, n=12
[15] = DDTC 750 mg/kg ip 3/4 hour after DDP, n=5
[16] = DDTC 750 mg/kg ip 1 hour after DDP, n=16
[17] = DDTC 750 mg/kg ip 2 hours after DDP, n=14
[18] = DDTC 750 mg/kg ip 3 hours after DDP, n=10
[19] = DDTC 750 mg/kg ip 4 hours after DDP, n=7
[20] = DDTC 750 mg/kg ip 6 hours after DDP, n=5
[21] = DDTC 750 mg/kg ip at -1/2 hour (30 minutes before DDP), n=4
[22] = DDTC 750 mg/kg ip, rescue time printed 11/2 hours after DDP, n=15
[23] = NaDDTC administered between 1 and 4 hours after DDP
[24] = NaDDTC immediately after DDP (time=0 hour)
[25] = DDP 2 mg/kg i.v., NaDDTC 100 mg/kg i.v.
[26] = DDP 2 mg/kg, DDTC 750 mg/kg ip 2 hours later
[27] = DDP 8 mg/kg with DDTC rescue 750 mg/kg ip

Structure (SMILES): CCN(CC)C(=S)[S-].[Na+] [DDTC, sodium diethyldithiocarbamate]
- Kidney sections ([1]; NaDDTC 100 mg/kg i.v.): mild hydropic changes with occasional evidence of degeneration
- Day 5 BUN (mean ±SEM) [1, 9]: 43±5 milligrams per deciliter
- Diarrhea [1, 9]: not observed
- Weight loss on day 5 [1, 9]: 14%
- Kidney sections ([1]; NaDDTC 750 mg/kg i.p.): mild hydropic changes with occasional evidence of degeneration
- Day 5 BUN (mean ±SEM) [1, 10]: 73±4 milligrams per deciliter
- Diarrhea [1, 10]: not observed
- Weight loss on day 5 [1, 10]: 9%
- Inhibition of platinum-induced nephrotoxicity ([1]; administered intravenously): effectively inhibit platinum-induced nephrotoxicity without deleterious effects on tumor response
- Protection against nephrotoxicity, intravenous vs intraperitoneal ([1]; low-dose i.v. vs. high-dose i.p. DDTC rescue): essentially equivalent for both routes
- Reducing the toxicity (including bone marrow toxicity) of platinum compounds [2]: effective in reducing the toxicity (including bone marrow toxicity)
- Incidence of Diarrhea ([3]; DDTC 750 mg/kg ip 0 hours after DDP): 0/6
- Incidence of Diarrhea ([3]; DDTC 750 mg/kg ip 3/4 hour after DDP): 0/5
- Incidence of Diarrhea ([3]; DDTC 750 mg/kg ip 1 hour after DDP): 0/8
- Incidence of Diarrhea ([3]; DDTC 750 mg/kg ip 2 hours after DDP): 0/14
- Incidence of Diarrhea ([3]; DDTC 750 mg/kg ip 6 hours after DDP): 2/5
- Incidence of Diarrhea ([3]; DDTC 750 mg/kg ip 6 hours after DDP, listed as NaDDTC): two of the five
- BUN [3, 11]: 152 ± 20 mg/dL
- Weight Loss [3, 11]: 4 ± 2%
- BUN [3, 12]: 90 ± 5 mg/dL
- Weight Loss [3, 12]: 4 ± 1%
- BUN [3, 13]: 72 ± 11 mg/dL
- Weight Loss [3, 13]: 2 ± 2%
- BUN [3, 14]: 214 ± 21 mg/dL
- Weight Loss [3, 14]: 9 ± 1%
- BUN [3, 15]: 56 ± 9 mg/dL
- Weight Loss [3, 15]: 8 ± 2%
- BUN [3, 16]: 63 ± 4 mg/dL
- Weight Loss [3, 16]: 13 ± 1%
- BUN [3, 17]: 95 ± 9 mg/dL
- Weight Loss [3, 17]: 15 ± 1%
- BUN [3, 18]: 77 ± 8 mg/dL
- Weight Loss [3, 18]: 10 ± 1%
- BUN [3, 19]: 106 ± 8 mg/dL
- Weight Loss [3, 19]: 14 ± 1%
- BUN [3, 20]: 209 ± 44 mg/dL
- Weight Loss [3, 20]: 18 ± 2%
- BUN [3, 21]: 418 ± 43 mg/dL
- Weight Loss [3, 21]: 18 ± 1%
- BUN [3, 22]: 62 ± 3 mg/dL
- Weight Loss [3, 22]: 5 ± 1%
- Reduction in BUN or weight loss ([3]; NaDDTC 6 hours after DDP): failed to demonstrate significant reduction either in BUN or weight loss
- Rescue efficacy ([3]; NaDDTC 6 hours after DDP): only minimal rescue efficacy (if any)
- Diarrhea [3, 23]: Diarrhea was not observed
- Kidney sections, histopathology [3, 23]: barely discernible pale band of mild tubule degeneration in the outer zone of the outer medullary stripe
- Necropsy, small intestine [3, 23]: grossly normal small intestine
- Reduction in BUN and weight loss [3, 23]: Marked reduction
- Decrease in weight loss [3, 24]: significant decrease in weight loss
- Reduction of BUN levels [3, 24]: without reduction of BUN levels
- Protection from nephrotoxic effects of DDP ([3]; NaDDTC ip 500-750 mg/kg, DDP doses as high as 8 mg/kg): would afford protection from the nephrotoxic effects of DDP
- Adverse effects on tumor response to DDP (Rat mammary tumor 13762; [25]): no adverse effects
- Initial response, control vs intravenous rescue group (Rat mammary tumor 13762; [25]): Initial response was identical in both groups
- Rats with relapse between days 25 and 30 (Rat mammary tumor 13762; DDP 2 mg/kg i.v., NaDDTC 100 mg/kg i.v. 2 hours after DDP, n=8): 2/8
- Other (non-relapsed) rats through day 50 (Rat mammary tumor 13762; DDP 2 mg/kg i.v., NaDDTC 100 mg/kg i.v., n=8): essentially free of tumor through day 50
- Minimum tumor diameter, day 23 (Rat mammary tumor 13762; DDP 2 mg/kg i.v., NaDDTC 750 mg/kg i.p. 2 hours after DDP, n=11): 1.3 cm
- Rats with relapse by day 30 (Rat mammary tumor 13762; DDP 2 mg/kg i.v., NaDDTC 750 mg/kg i.p., n=11): 9/11
- Mean tumor diameter by day 30 (Rat mammary tumor 13762; DDP 2 mg/kg i.v., NaDDTC 750 mg/kg i.p., relapsed rats): 2.2 cm
- Disappearance of tumor (Rat mammary tumor 13762; [26]): disappearance of tumor was not observed
- Initial response versus unrescued group (Rat mammary tumor 13762; [26]): identical to that of the unrescued group
- Mean minimum tumor diameter at day 21 (Rat mammary tumor 13762; [26]): 1.2 cm
- Mean tumor diameter at day 30 (Rat mammary tumor 13762; [26]): 3.0 cm
- Relapse and subsequent tumor growth versus no rescue (Rat mammary tumor 13762; [26]): earlier onset of relapse and more rapid subsequent tumor growth
- Deaths (Rat mammary tumor 13762; [27]): no deaths
- Tumor-free rats by day 28 (Rat mammary tumor 13762; [27]): 1/8
- Initial tumor response with or without NaDDTC rescue (Rat mammary tumor 13762; DDP 2, 4, and 8 mg/kg, NaDDTC 750 mg/kg ip): identical with or without NaDDTC rescue
- Tumor response at DDP 4 and 8 mg/kg versus 2 mg/kg (Rat mammary tumor 13762; DDP 4 and 8 mg/kg, DDTC rescue 750 mg/kg ip): Qualitatively similar results
- Local recurrence and tumor growth (Rat mammary tumor 13762; NaDDTC 750 mg/kg ip): locally recurring tumors recur earlier and grow more rapidly; also recorded: local recurrence commenced earlier and tumors grew more rapidly
- Effect of ip rescue on initial tumor response (Rat mammary tumor 13762; ip route of rescue): does not seem to have any significant adverse effect upon initial tumor response

Structure (SMILES): CCN(CC)C(=S)[S][Na]
- LD50 [4]: at least 1,500 mg/kg
- dose excreted at 2 h ([5]; within 2 hours, read-out: Free ligand in urine, of the initial dose): < 0.1%
- dose excreted at 2 h ([5]; read-out: Total DDTC excreted by the kidneys within 2 hours, of the dose given): 18 to 20%
- Solubility in alcohol ([6]; alcohol): also soluble in alcohol
- Solubility in water ([6]; water): highly soluble in water, e.g. in molar quantities

Structure (SMILES): NC(N)=S [thiourea]
- Efficacy of platinum (II) [7]: Decreased efficacy of platinum (II)
- Reversal of Pt/DNA complexing (Pt/DNA complexes): does reverse Pt/DNA complexing
- Inhibition of thyroid hormone production [8]: reported to inhibit thyroid hormone production
